Consider six substances from publication PMC10812672, “Short Antimicrobial Peptide Derived from the Venom Gland Transcriptome of Pamphobeteus verdolaga Increases Gentamicin Susceptibility of Multidrug-Resistant Klebsiella pneumoniae” (Antibiotics, 2023).

The term MIC denotes the lowest concentration that inhibits growth of the organism. The low end stands for greater potency, the high end for weaker potency. For orientation: IC50 means the point on the concentration scale where inhibition reaches its midpoint. Broadly, the MBC is the smallest concentration meeting the test's criterion for killing. Read a high MBC as less potent killing. One may read the inhibition as the percentage by which the read-out fell short of the control. Low readings indicate a response near the control, high ones a response far below the control.

Test [1] concerns E. coli ATCC® 25922. The test is classed as cell-based, Escherichia coli. Particulars: CLSI broth microdilution, Mueller-Hinton broth, peptide 30 µM, ~6 × 10^6 CFU/mL, 24 h 37 °C, OD600; triplicate, three independent assays; NA = no activity. As for the experimental part:
(§1) Activity screening was conducted using the broth microdilution method at a fixed peptide concentration of 30 µM against E. coli ATCC® 8739 and 25922, as well as S. aureus ATCC® 6538 and 29213. The bacterial density used for screening was approximately 6 × 10^6 CFU/mL [30]. Peptide activity measurements were conducted in terms of the growth inhibition percentage. No dose-response curves were generated during the screening phase as a resource optimization strategy in the initial activity evaluation. […] For S. aureus ATCC® 6538 and S. aureus ATCC® 29213, growth inhibition ranged from 0% to 140% and 0% to 98%, respectively (Table 1).
(§2) The evaluation of the antimicrobial activity of the peptides was conducted using the CLSI’s broth microdilution method for bacterial susceptibility testing. For the screening phase, peptides were evaluated at a single 30 μM concentration, in triplicate and in three independent assays, against the E. coli ATCC® 8739, E. coli ATCC® 25922, S. aureus ATCC® 6538, or S. aureus ATCC® 29213 reference USP and CLSI strains. For the determination of MIC, MBC, or IC50, peptides or antibiotics were evaluated in concentrations between 1.56–200 µM. These evaluations were conducted in triplicate and in three independent assays, against the E. coli ATCC® 25922, S. aureus ATCC® 29213, E. faecalis ATCC® 49532, P. aeruginosa ATCC® 9027, and K. pneumoniae ATCC® BAA-1705, or the clinically isolated MDR strain. In detail, 1 mL of a glycerol stock solution of the ATCC® or clinically isolated bacterial strain was added to 9 mL of Mueller-Hinton Broth and incubated for 18 h, 180 rpm and 37 °C (Incubator 1000, Heidolph Instruments, Schwabach, Germany). After the incubation, 1 mL of the previous solution was transferred to a new recipient containing 9 mL of fresh Mueller-Hinton broth and incubated for 4 h, 180 rpm and 37 °C (Incubator 1000, Heidolph Instruments, Schwabach, Germany). During the second incubation, the peptides or the antibiotics were dissolved in PBS pH 7.20 in concentrations between 19.53–2500 µM (MC5 Micro Balance, Sartorius AG, Göttingen, Germany). An amount of 10 µL of either peptide or antibiotic was dispensed in triplicate in 96-well flat bottom culture plates, along with 10 µL of PBS (Negative activity control), BTM-P1 (Positive activity control), or 10 µL of Mueller-Hinton broth (Blank); then, 110 µL of Mueller-Hinton broth was poured in all wells. Following this, the bacteria were suspended in Mueller-Hinton broth up to a concentration of approximately 1.50 × 10^8 CFU/mL, as measured by optical density at 600 nm between 0.06 to 0.11 (0.5 McFarland standard), in a Multiskan SkyHigh spectrophotometer (ThermoFisher Scientific, Waltham, MA, USA). Amounts of 5 µL of the 1.50 × 10^8 CFU/mL suspension were added to each well (except for the blank) for a final well concentration of approximately 6 × 10^6 CFU/mL. The plate was incubated for 24 h at 37 °C (BE 500, Memmert GmbH, Büchenbach, Germany) and optical density was measured at 600 nm in a Multiskan SkyHigh spectrophotometer (ThermoFisher Scientific, Waltham, MI, USA). Following the measurement of optical density, plates were visually inspected to determine the MIC. Subsequently, 100 µL of the concentration associated to the MIC and 100 µL of the next higher concentration were added to Petri dishes containing Mueller-Hinton Agar. The dishes were then incubated for 24 h at 37 °C (BE 500, Memmert GmbH, Büchenbach, Germany). After incubation, the Petri dishes were visually inspected, and the MBC was determined in the absence of growth. IC50 values were interpolated from regressions with correlation values above 0.70. Growth inhibition percentages were calculated as follows: Growth inhibition %=1−AbsPEPTIDE or ANTIBIOTIC−Median AbsBLANK/Median AbsPBS−Median AbsBLANK×100
Background: Dilution methods test growth across graded concentrations, often in twofold steps.

The subject of the next test is E. coli ATCC® 8739. The test is classed as cell-based, Escherichia coli. Particulars: CLSI broth microdilution, Mueller-Hinton broth, peptide 30 µM, ~6 × 10^6 CFU/mL, 24 h 37 °C, OD600; triplicate, three independent assays; NA = no activity. The protocol:
as §1, §2

In test [2] the test system is E. coli ATCC® 25922. The test is classed as cell-based, Escherichia coli. Particulars: for MIC: 1.56–200 µM, visual inspection, triplicate, three independent assays; for MIC / MBC: 24 h 37 °C; for MBC: plating on Mueller-Hinton agar, absence of growth. As for the experimental part:
(§3) The nine AMPs identified in the initial screening were evaluated at concentrations between 1.56–200 µM, against E. coli ATCC® 25922, S. aureus ATCC® 29213, E. faecalis ATCC® 49532, P. aeruginosa ATCC® 9027, and K. pneumoniae ATCC® BAA-1705 (Supplementary Figures S2–S6). […] Only PvAMP66 and PvAMP172 reached the MBC for S. aureus at 50 µM and 100 µM, respectively (Table 2).
as §2

Test [3] concerns S. aureus ATCC® 29213. It counts as cell-based, Staphylococcus aureus. Particulars: for MIC: 1.56–200 µM, 24 h 37 °C, visual inspection, triplicate, three independent assays; for IC50: growth inhibition OD600, 95% confidence interval in parentheses. As for the experimental part: as §3, §2
Another test has as its system P. aeruginosa ATCC® 9027. It counts as cell-based, Pseudomonas aeruginosa. The settings on record: for MIC: 1.56–200 µM, 24 h 37 °C, visual inspection, triplicate, three independent assays; for IC50: growth inhibition OD600, 95% confidence interval in parentheses; for MBC: plating on Mueller-Hinton agar, absence of growth. The protocol: as §3, §2
Test [4] has as its system S. aureus ATCC® 29213. It counts as cell-based, Staphylococcus aureus. Particulars: CLSI broth microdilution, Mueller-Hinton broth, peptide 30 µM, ~6 × 10^6 CFU/mL, 24 h 37 °C, OD600; triplicate, three independent assays; NA = no activity. The protocol: as §1, §2
A further test concerns S. aureus ATCC® 6538. It counts as cell-based, Staphylococcus aureus. The settings on record: CLSI broth microdilution, Mueller-Hinton broth, peptide 30 µM, ~6 × 10^6 CFU/mL, 24 h 37 °C, OD600; triplicate, three independent assays; NA = no activity. As for the experimental part: as §1, §2
Where [5] appears, read: growth inhibition OD600, interpolated from regression, 95% confidence interval in parentheses, read-out: IC50.

Read-outs that look alike come from different tables or passages of the source. Ends that are not written are not given here.

Regarding “CRKLCFRNRCLTYCRGR-NH2 (disulfide (positions not given here)) [PvAMP172, predicted P. verdolaga AMP]”, the “E. coli ATCC® 25922 (Inhibition %)” value in the test on E. coli ATCC® 25922 [1] is reported as 47.43 ± 2.76 %. Also, in the test on E. coli ATCC® 8739, the “E. coli ATCC® 8739 (Inhibition %)” value is given as 64.78 ± 5.46 %. Moreover, the MIC in the test on E. coli ATCC® 25922 [2] is 50 µM; in the test on S. aureus ATCC® 29213 [3], 100 µM; against P. aeruginosa ATCC® 9027, 50 µM. Moreover, the IC50 was determined as 42.9 µM with E. coli ATCC® 25922 [2] (setting [5]) and 48.4 µM with P. aeruginosa ATCC® 9027. The MBC with E. coli ATCC® 25922 [2] was found to be 50 µM; against S. aureus ATCC® 29213 [3] (plating on Mueller-Hinton agar, absence of growth) it was 100 µM; with P. aeruginosa ATCC® 9027 it was 50 µM.
As for GRIFRLLRK-NH2 [PvAMP82], the “E. coli ATCC® 25922 (Inhibition %)” value in the test on E. coli ATCC® 25922 [1] is recorded as 74.94 ± 14.27 %. Moreover, in the test with E. coli ATCC® 8739, the “E. coli ATCC® 8739 (Inhibition %)” value is 64.01 ± 4.28 %. Further, the “S. aureus ATCC® 29213 (Inhibition %)” value in the test with S. aureus ATCC® 29213 [4] was 43.44 ± 10.24 %. Also, the “S. aureus ATCC® 6538 (Inhibition %)” value with S. aureus ATCC® 6538 turned out to be 43.03 ± 6.37 %. Moreover, the MIC in the test on E. coli ATCC® 25922 [2] came out at 100 µM; in the test with P. aeruginosa ATCC® 9027, 200 µM. The results for the MBC with E. coli ATCC® 25922 [2] and against P. aeruginosa ATCC® 9027 were 100 µM and 200 µM, respectively.
Consider IIKKIWK-NH2 [PvAMP32], for which the “E. coli ATCC® 25922 (Inhibition %)” value in the test with E. coli ATCC® 25922 [1] is on record as 21.19 ± 3.82 %. Also, the “E. coli ATCC® 8739 (Inhibition %)” value with E. coli ATCC® 8739 was 30.73 ± 5.21 %. Moreover, the “S. aureus ATCC® 29213 (Inhibition %)” value with S. aureus ATCC® 29213 [4] turned out to be 33.17 ± 8.46 %. Moreover, the “S. aureus ATCC® 6538 (Inhibition %)” value in the test with S. aureus ATCC® 6538 is on record as 43.62 ± 4.90 %. Moreover, the MIC against E. coli ATCC® 25922 [2] came to 100 µM; in the test with S. aureus ATCC® 29213 [3], 50 µM; in the test on P. aeruginosa ATCC® 9027, 100 µM. Besides, the concentration for half-maximal inhibition (IC50) with E. coli ATCC® 25922 [2] (setting [5]) amounted to 94.7 µM; in the test on S. aureus ATCC® 29213 [3], 108 µM; in the test with P. aeruginosa ATCC® 9027, 124 µM. The MBC against E. coli ATCC® 25922 [2] and against P. aeruginosa ATCC® 9027 was 100 µM in each case.
On to “QCRKLCFRNRCLTYCRGR-NH2 (disulfide (positions not given here)) [PvAMP177, predicted P. verdolaga AMP]”, for which the “E. coli ATCC® 25922 (Inhibition %)” value in the test with E. coli ATCC® 25922 [1] is 56.76 ± 3.64 %. The “E. coli ATCC® 8739 (Inhibition %)” value with E. coli ATCC® 8739 worked out at 93.07 ± 7.11 %. Further, the MIC in the test with E. coli ATCC® 25922 [2] amounted to 25 µM; in the test with P. aeruginosa ATCC® 9027, 50 µM. The IC50 was 25.3 µM in the test on E. coli ATCC® 25922 [2] (setting [5]), 6.64 µg/mL with E. coli ATCC® 25922 [2] (same result in µg/mL), 138 µM in the test on S. aureus ATCC® 29213 [3] and 25.9 µM in the test on P. aeruginosa ATCC® 9027. Besides, the MBC with E. coli ATCC® 25922 [2] and against P. aeruginosa ATCC® 9027 was 50 µM throughout.
On to “QCRKLCFRNRCLTYCRGRG-NH2 (disulfide (positions not given here)) [PvAMP183, predicted P. verdolaga AMP]”, for which, in the test with E. coli ATCC® 25922 [1], the “E. coli ATCC® 25922 (Inhibition %)” value came to 64.66 ± 1.26 %. The “E. coli ATCC® 8739 (Inhibition %)” value in the test with E. coli ATCC® 8739 stood at 48.26 ± 2.41 %. This substance gave an inhibition with S. aureus ATCC® 29213 [4] of 4.71 ± 21.9%. In addition, the “S. aureus ATCC® 6538 (Inhibition %)” value with S. aureus ATCC® 6538 came out at 47.36 ± 1.27 %. Besides, in the test with E. coli ATCC® 25922 [2], the MIC is 25 µM and the MBC stood at 50 µM. Besides, the half-inhibitory concentration (IC50) in the test on E. coli ATCC® 25922 [2] (setting [5]) came out at 26.9 µM. Further, in the test with P. aeruginosa ATCC® 9027, the MIC is on record as 50 µM, the IC50 is 48.3 µM and the minimum bactericidal concentration (MBC) is 100 µM.
“RSVLKAHCRICRRRG-NH2 (disulfide) [PvAMP164, predicted P. verdolaga AMP]”: the “E. coli ATCC® 25922 (Inhibition %)” value in the test with E. coli ATCC® 25922 [1] was found to be 30.10 ± 3.90 %. The “E. coli ATCC® 8739 (Inhibition %)” value in the test on E. coli ATCC® 8739 turned out to be 20.51 ± 4.31 %. Besides, the “S. aureus ATCC® 29213 (Inhibition %)” value with S. aureus ATCC® 29213 [4] is 12.25 ± 1.29 %. Moreover, the “S. aureus ATCC® 6538 (Inhibition %)” value with S. aureus ATCC® 6538 is on record as 24.49 ± 10.18 %. For the same substance, in the test with E. coli ATCC® 25922 [2], the MIC turned out to be 200 µM and the MBC is 200 µM. In the test with P. aeruginosa ATCC® 9027, this substance displayed an MIC of 100 µM and an MBC of 100 µM.
